According to patent publication EP1242382B1, “TRICYCLIC PROTEIN KINASE INHIBITORS” (Wyeth, priority 1999, dated 2001):
Converted amounts (≈) assume the structure as drawn.

How the values were obtained:
A431 = assay: Inhibition of cancer cell growth as measured by cell number (Sulforhodamine B); type: cell-based; details: Homo sapiens, A-431; 48 hours exposure
Experimental: (§1) Human tumor cell lines are plated in 96-well plates (250 µl/well, 1-6 x 10^4 cells/ml) in RPMI 1640 medium, containing 5% FBS (Fetal Bovine Serum). Twenty four hours after plating, test compounds are added at various concentrations. After 48 hours exposure to test compounds, cells are fixed with trichloroacetic acid, and stained with Sulforhodamine B. After washing with trichloroacetic acid, bound dye is solubilized in 10 mM Tris base and optical density is determined using plate reader. Under conditions of the assay the optical density is proportional to the number of cells in the well. […] The test procedure is described in detail by Philip Skehan et. al, J. Natl. Canc. Inst., 82, 1107-1112 (1990). […] Information about some of the cell lines used in these test procedures is available from the American Type Tissue Collection: Cell Lines and Hybridomas, 1994 Reference Guide, 8th Edition.

MDA-MB-435 = assay: as above; type: cell-based; details: Homo sapiens, 48 hours exposure
Experimental: as §1

SK-BR3 = assay: as above; type: cell-based; details: Homo sapiens, SK-BR-3; 48 hours exposure
Experimental: as §1

SW620 = assay: as above; type: cell-based; details: Homo sapiens, SW-620; 48 hours exposure
Experimental: as §1

Raf-1 (c-Raf) = biological target: T1, Raf-1 (c-Raf) (Homo sapiens, UniProt P04049); assay: Raf1 kinase cascade assay procedure; type: biochemical
T1 construct: Sf9 insect cell lysate containing full length 6his-tagged recombinant human c-Raf; host or cells: c-Raf: Sf9 insect cell lysate; MEK1 and MAPK: E. coli
T1 sequence (P04049 whole entry): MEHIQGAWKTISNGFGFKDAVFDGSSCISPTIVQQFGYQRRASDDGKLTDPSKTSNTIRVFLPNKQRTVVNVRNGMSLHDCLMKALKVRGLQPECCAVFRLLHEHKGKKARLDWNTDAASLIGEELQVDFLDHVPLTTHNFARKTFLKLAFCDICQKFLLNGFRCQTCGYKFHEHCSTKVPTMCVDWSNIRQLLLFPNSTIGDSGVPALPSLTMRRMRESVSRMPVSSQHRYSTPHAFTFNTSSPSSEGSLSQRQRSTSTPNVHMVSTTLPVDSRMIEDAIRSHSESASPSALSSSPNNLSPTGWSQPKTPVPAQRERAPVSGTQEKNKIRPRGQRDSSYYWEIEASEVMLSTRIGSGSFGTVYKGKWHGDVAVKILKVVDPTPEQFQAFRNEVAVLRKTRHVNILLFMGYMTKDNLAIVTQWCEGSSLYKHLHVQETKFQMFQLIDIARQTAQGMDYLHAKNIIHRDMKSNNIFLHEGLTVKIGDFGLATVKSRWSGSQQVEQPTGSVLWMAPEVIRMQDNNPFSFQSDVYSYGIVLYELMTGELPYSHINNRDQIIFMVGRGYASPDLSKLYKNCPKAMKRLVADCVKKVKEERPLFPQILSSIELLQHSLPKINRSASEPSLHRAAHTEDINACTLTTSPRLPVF

`COc1cc2cc3c(Nc4ccc(OCc5ccccc5)c(Cl)c4)c(C#N)cnc3cc2cc1OCCN1CCOCC1` [Example 218, 4-(4-Benzyloxy-3-chlorophenylamino)-7-methoxy-8-(2-morpholin-4-yl-ethoxy)benzo[g]quinoline-3-carbonitrile] showed an IC50 (A431) of 4.7 µg/mL (≈ 7.9 µM), an IC50 (MDA-MB-435) of 33.5 µg/mL (≈ 56.3 µM) and an IC50 (SK-BR3) of 3.5 µg/mL (≈ 5.88 µM). It also gave an IC50 (SW620) of 11.6 µg/mL (≈ 19.5 µM) and an IC50 (Raf-1 (c-Raf)) of 660 nM.
